In patent US20210254056A1, “IDENTIFICATION AND TARGETED MODULATION OF GENE SIGNALING NETWORKS” (CAMP4 THERAPEUTICS CORPORATION, priority 2017, published 2021):

Tested on: hepatocytes
Test: RNA-seq of hepatocytes treated with Phase III failure compounds
Conditions: for significant modulation of expression of disease genes: q≤0.05, genes in the value or listed in the block; for significant changes in gene expression: RNA-seq of Table 36, FPKM≥0.5, log 2(fold-change)≥1, q-value≤0.05; for significant modulation of expression of any of the genes analyzed: p≤0.05
Description: RNA-seq was performed to determine the effects of the compounds on hepatocytes.
Significance was determined by the criteria of FPKM≥0.5, a log 2(fold-change)≥1, and a […].

Cn1cc(C2=C(c3cn(C4CCN(Cc5ccccn5)CC4)c4ccccc34)C(=O)NC2=O)c2ccccc21 [Enzastaurin]
RNA-seq results, CYP2B6 expression: 0.42 | RNA-seq results, CYP2C19 expression: 0.47 | RNA-seq results, CYP2D6 expression: −0.28 | RNA-seq results, CYP3A4 expression: 0.22 | RNA-seq results, CYP7B1 expression: 0.06 | RNA-seq results, CYP39A1 expression: −1.39 | RNA-seq results: CYP2B6 expression: 0.34 | RNA-seq results: CYP2C19 expression: 1.62 | RNA-seq results: CYP2D6 expression: −0.62 | RNA-seq results: CYP3A4 expression: 0.01 | RNA-seq results: CYP7B1 expression: 0.26 | RNA-seq results: CYP39A1 expression: −0.08 | significant modulation of expression of disease genes (RNA-seq, hepatocytes): significantly (q≤0.05) modulate expression | effect on disease gene expression (RNA-seq, hepatocytes): effect on expression of too many disease genes | RNA-seq results: A1BG expression (gene A1BG, hepatocytes): 0.13 | RNA-seq results: AGTR1 expression (gene AGTR1, hepatocytes): −0.76 | RNA-seq results: AGXT expression (gene AGXT, hepatocytes): −0.27 | RNA-seq results: AHI1 expression (gene AHI1, hepatocytes): 0.25 | RNA-seq results: AMPD3 expression (gene AMPD3, hepatocytes): −0.35 | RNA-seq results: AMT expression (gene AMT, hepatocytes): −0.42 | RNA-seq results: ANGPTL3 expression (gene ANGPTL3, hepatocytes): −2.31 | RNA-seq results: ANKS4B expression (gene ANKS4B, hepatocytes): −0.71 | RNA-seq results: ANKS6 expression (gene ANKS6, hepatocytes): 0.10 | RNA-seq results: ANPEP expression (gene ANPEP, hepatocytes): −0.52 | RNA-seq results: AOC2 expression (gene AOC2, hepatocytes): 0.11 | RNA-seq results: APOA2 expression (gene APOA2, hepatocytes): −0.48 | RNA-seq results: APOA5 expression (gene APOA5, hepatocytes): −0.04 | RNA-seq results: APOB expression (gene APOB, hepatocytes): −0.19 | RNA-seq results: COG5 expression (gene COG5, hepatocytes): 0.35 | RNA-seq results: COG6 expression (gene COG6, hepatocytes): 0.23 | RNA-seq results: COL1A1 expression (gene COL1A1, hepatocytes): 0.34 | RNA-seq results: COX6A1 expression (gene COX6A1, hepatocytes): −1.30 | RNA-seq results: CP expression (gene CP, hepatocytes): 0.80 | RNA-seq results: CPS1 expression (gene CPS1, hepatocytes): 0.69 | RNA-seq results: CPT1A expression (gene CPT1A, hepatocytes): −0.10 | RNA-seq results: CPT2 expression (gene CPT2, hepatocytes): −0.15 | RNA-seq results: CROT expression (gene CROT, hepatocytes): −0.21 | RNA-seq results: CSPP1 expression (gene CSPP1, hepatocytes): −0.22 | RNA-seq results: CTC1 expression (gene CTC1, hepatocytes): 0.46 | RNA-seq results: CTDSP2 expression (gene CTDSP2, hepatocytes): 0.44 | RNA-seq results: CTH expression (gene CTH, hepatocytes): −0.17 | RNA-seq results: CTNS expression (gene CTNS, hepatocytes): 0.16 | RNA-seq results: CTSF expression (gene CTSF, hepatocytes): −0.63 | RNA-seq results: CTSK expression (gene CTSK, hepatocytes): 0.47 | RNA-seq results: CYB5A expression (gene CYB5A, hepatocytes): −0.56 | RNA-seq results: CYB5R3 expression (gene CYB5R3, hepatocytes): 0.02 | RNA-seq results: CYP27A1 expression (gene CYP27A1, hepatocytes): −0.43 | RNA-seq results: DAO expression (gene DAO, hepatocytes): −0.01 | RNA-seq results: DBT expression (gene DBT, hepatocytes): 0.28 | RNA-seq results: DCDC2 expression (gene DCDC2, hepatocytes): 0.20 | RNA-seq results: DCXR expression (gene DCXR, hepatocytes): −1.16 | RNA-seq results: FABP1 expression (gene FABP1, hepatocytes): −0.93 | RNA-seq results: FADD expression (gene FADD, hepatocytes): −0.53 | RNA-seq results: FAM111A expression (gene FAM111A, hepatocytes): 0.49 | RNA-seq results: FAM111B expression (gene FAM111B, hepatocytes): 0.47 | RNA-seq results: FAN1 expression (gene FAN1, hepatocytes): 0.43 | RNA-seq results: FARS2 expression (gene FARS2, hepatocytes): −0.55 | RNA-seq results: FASLG expression (gene FASLG, hepatocytes): 0.35 | RNA-seq results: FGA expression (gene FGA, hepatocytes): −0.10 | RNA-seq results: FGD1 expression (gene FGD1, hepatocytes): 0.29 | RNA-seq results: FGFR2 expression (gene FGFR2, hepatocytes): 0.75 | RNA-seq results: FIG4 expression (gene FIG4, hepatocytes): 0.08 | RNA-seq results: FIS1 expression (gene FIS1, hepatocytes): −1.07 | RNA-seq results: FTCD expression (gene FTCD, hepatocytes): −0.35 | RNA-seq results: FTH1 expression (gene FTH1, hepatocytes): −0.84 | RNA-seq results: FUCA1 expression (gene FUCA1, hepatocytes): −0.37 | RNA-seq results: FXN expression (gene FXN, hepatocytes): −0.10 | RNA-seq results: G6PC3 expression (gene G6PC3, hepatocytes): −0.60 | RNA-seq results: G6PC expression (gene G6PC, hepatocytes): 0.69 | RNA-seq results: G6PD expression (gene G6PD, hepatocytes): −0.23 | RNA-seq results: GALK1 expression (gene GALK1, hepatocytes): −0.94 | RNA-seq results: GALK2 expression (gene GALK2, hepatocytes): −0.51 | RNA-seq results: GATA6 expression (gene GATA6, hepatocytes): −0.26 | RNA-seq results: GATM expression (gene GATM, hepatocytes): 0.12 | RNA-seq results: GBA expression (gene GBA, hepatocytes): 0.04 | RNA-seq results: GBE1 expression (gene GBE1, hepatocytes): −0.07 | RNA-seq results: GCH1 expression (gene GCH1, hepatocytes): −0.12 | RNA-seq results: GCKR expression (gene GCKR, hepatocytes): 0.17 | RNA-seq results: GCLC expression (gene GCLC, hepatocytes): 0.11 | RNA-seq results: GGCX expression (gene GGCX, hepatocytes): 0.17 | RNA-seq results: GHR expression (gene GHR, hepatocytes): 0.73 | RNA-seq results: GJB2 expression (gene GJB2, hepatocytes): −0.07 | RNA-seq results: GOSH expression (gene GOSH, hepatocytes): −1.35 | RNA-seq results: RRM2B (gene RRM2B, hepatocytes): −0.08 | RNA-seq results: RSAD1 (gene RSAD1, hepatocytes): 0.26 | RNA-seq results: SAMHD1 (gene SAMHD1, hepatocytes): −0.34 | RNA-seq results: SC5D (gene SC5D, hepatocytes): 0.23 | RNA-seq results: SCARB1 (gene SCARB1, hepatocytes): −0.02 | RNA-seq results: SCN9A (gene SCN9A, hepatocytes): −1.60 | RNA-seq results: SDCCAG8 (gene SDCCAG8, hepatocytes): 0.08 | RNA-seq results: SEPN1 (gene SEPN1, hepatocytes): −0.51 | RNA-seq results: SERAC1 (gene SERAC1, hepatocytes): −0.28 | RNA-seq results: SERPINA1 (gene SERPINA1, hepatocytes): 0.21 | RNA-seq results: SERPING1 (gene SERPING1, hepatocytes): 0.06 | RNA-seq results: SERPINI1 (gene SERPINI1, hepatocytes): −0.50 | RNA-seq results: SETBP1 (gene SETBP1, hepatocytes): 0.08 | RNA-seq results: SFXN4 (gene SFXN4, hepatocytes): 0.11 | RNA-seq results: SLC10A1 (gene SLC10A1, hepatocytes): −0.60 | RNA-seq results: SLC10A3 (gene SLC10A3, hepatocytes): 0.28 | RNA-seq results: SLC10A5 (gene SLC10A5, hepatocytes): −0.77 | RNA-seq results: SLC10A7 (gene SLC10A7, hepatocytes): −0.46 | RNA-seq results: SLC11A2 (gene SLC11A2, hepatocytes): 0.16 | RNA-seq results: SLC19A2 (gene SLC19A2, hepatocytes): 0.28 | RNA-seq results: SLC19A3 (gene SLC19A3, hepatocytes): −0.67 | RNA-seq results: SLC22A1 (gene SLC22A1, hepatocytes): −0.34 | RNA-seq results: SLC22A5 (gene SLC22A5, hepatocytes): 0.26 | RNA-seq results: SLC25A1 (gene SLC25A1, hepatocytes): −0.20 | RNA-seq results: SLC25A10 (gene SLC25A10, hepatocytes): −0.01 | RNA-seq results: SLC25A12 (gene SLC25A12, hepatocytes): 0.10 | RNA-seq results: SLC25A13 (gene SLC25A13, hepatocytes): 0.11 | RNA-seq results: SLC25A15 (gene SLC25A15, hepatocytes): −0.31 | RNA-seq results: SLC25A19 (gene SLC25A19, hepatocytes): −0.01 | RNA-seq results: SLC25A20 (gene SLC25A20, hepatocytes): −0.96 | RNA-seq results: SLC25A32 (gene SLC25A32, hepatocytes): 0.18

Cn1cc(C2=C(c3cn(C4CCN(Cc5ccccn5)CC4)c4ccccc34)C(=O)NC2=O)c2ccccc21 [Enzstaurin]
Number (#) of genes having significantly changed expression: 971

Cc1cc(C)c2c(c1)[C@@H](N(Cc1cc(C(F)(F)F)cc(C(F)(F)F)c1)c1nnn(C)n1)CCCN2C[C@H]1CC[C@H](C(=O)O)CC1 [Evacetrapib]
significant changes in gene expression: not observed to cause any significant changes in gene expression | significant modulation of expression of any of the genes analyzed (RNA-seq, hepatocytes): not observed to significantly modulate expression

COc1cccc2c1C(=O)c1c(O)c3c(c(O)c1C2=O)C[C@@](O)(/C(CO)=N/NC(=O)CCCCCN1C(=O)C=CC1=O)C[C@@H]3O[C@H]1C[C@H](N)[C@H](O)[C@H](C)O1 [INNO-206 (aldoxorubicin), aldoxorubicin]
Number (#) of genes having significantly changed expression: 1944 | significant modulation of expression of disease genes (RNA-seq, hepatocytes): significantly (q≤0.05) modulate expression | B2M expression, RNA-seq result (gene B2M, hepatocytes): 0.38 | B9D2 expression, RNA-seq result (gene B9D2, hepatocytes): 0.04 | BAAT expression, RNA-seq result (gene BAAT, hepatocytes): −1.32 | BBOX1 expression, RNA-seq result (gene BBOX1, hepatocytes): −1.19 | BBS10 expression, RNA-seq result (gene BBS10, hepatocytes): −0.06 | BCHE expression, RNA-seq result (gene BCHE, hepatocytes): −0.69 | BCKDHB expression, RNA-seq result (gene BCKDHB, hepatocytes): 0 | BCKDK expression, RNA-seq result (gene BCKDK, hepatocytes): −0.91 | BCO1 expression, RNA-seq result (gene BCO1, hepatocytes): −0.28 | BCR expression, RNA-seq result (gene BCR, hepatocytes): −0.83 | BLNK expression, RNA-seq result (gene BLNK, hepatocytes): 1.32 | BLOC1S3 expression, RNA-seq result (gene BLOC1S3, hepatocytes): −0.26 | BMPR1A expression, RNA-seq result (gene BMPR1A, hepatocytes): −0.33 | BRAF expression, RNA-seq result (gene BRAF, hepatocytes): −0.34 | BSCL2 expression, RNA-seq result (gene BSCL2, hepatocytes): 0.84 | BTD expression, RNA-seq result (gene BTD, hepatocytes): −0.48 | C4A expression, RNA-seq result (gene C4A, hepatocytes): 0.4 | C9 expression, RNA-seq result (gene C9, hepatocytes): 1.1 | C10orf10 expression, RNA-seq result (gene C10orf10, hepatocytes): 1.26 | C10orf11 expression, RNA-seq result (gene C10orf11, hepatocytes): −1.44 | C15orf41 expression, RNA-seq result (gene C15orf41, hepatocytes): −1.28 | CA2 expression, RNA-seq result (gene CA2, hepatocytes): 1.36 | CA5A expression, RNA-seq result (gene CA5A, hepatocytes): −0.64 | CA12 expression, RNA-seq result (gene CA12, hepatocytes): 0.43 | CAV1 expression, RNA-seq result (gene CAV1, hepatocytes): 0.02 | CCND1 expression, RNA-seq result (gene CCND1, hepatocytes): 0.26 | CD46 expression, RNA-seq result (gene CD46, hepatocytes): 1.34 | CD81 expression, RNA-seq result (gene CD81, hepatocytes): 0.46 | CD320 expression, RNA-seq result (gene CD320, hepatocytes): −0.9 | CDAN1 expression, RNA-seq result (gene CDAN1, hepatocytes): −0.23 | CDH1 expression, RNA-seq result (gene CDH1, hepatocytes): −0.12 | CEP19 expression, RNA-seq result (gene CEP19, hepatocytes): 0.44 | CEP83 expression, RNA-seq result (gene CEP83, hepatocytes): −1.24 | CEP164 expression, RNA-seq result (gene CEP164, hepatocytes): 1.34 | CEP290 expression, RNA-seq result (gene CEP290, hepatocytes): −1.26 | CFB expression, RNA-seq result (gene CFB, hepatocytes): 0.72 | CFHR2 expression, RNA-seq result (gene CFHR2, hepatocytes): 1.2 | CHRM3 expression, RNA-seq result (gene CHRM3, hepatocytes): −0.08 | CIDEC expression, RNA-seq result (gene CIDEC, hepatocytes): −0.39 | CLDN1 expression, RNA-seq result (gene CLDN1, hepatocytes): −0.93 | COG1 expression, RNA-seq result (gene COG1, hepatocytes): 0.38

CS(=O)(=O)c1cc(F)cc2c3c(n(Cc4ccc(Cl)cc4)c12)[C@@H](CC(=O)O)CC3 [Laropiprant (tredaptive), Laropiprant]
significant changes in gene expression: not observed to cause any significant changes in gene expression | significant modulation of expression of any of the genes analyzed (RNA-seq, hepatocytes): not observed to significantly modulate expression
